In patent US20260258073A1, “CRYSTALLINE FORMS OF A NEUROACTIVE STEROID” (SAGE THERAPEUTICS, INC., priority 2022, published 2026):

Assays:
[1] = Solid form stability on heating and cooling, checked by XRPD; type: physicochemical; settings: cooling down to room temperature under nitrogen protection, re-exposure to ambient conditions
Procedure: A PANalytical Empyrean X-ray powder diffractometer was used to collect X-ray diffraction patters as described herein. The diffraction peak position was calibrated using a PANalytical Si reference standard disc.
Form D was generated via vacuum dry of Form X. The XRPD pattern for Form D is provided in FIG. 3A and characteristic peaks are summarized in Table 20. […] (peak temperature) before a possible melting peak at 204.0° C. (peak temperature).
Form E was generated via liquid diffusion in BuOH/n-heptane of Form A at RT. […] (peak temperature) before possible melting peak at 203.1° C. (peak temperature). […] As evidenced by the presence of n-butanol methylene proton at ~3.7 ppm (1.5:1, molar ratio of n-butanol/API) detected by ^1H NMR in FIG. 4D, Form E was deemed to be an n-butanol solvate.

[2] = Dynamic vapor sorption (DVS) isotherm of the solid form; type: physicochemical
Procedure: DVS was measured using a SMS (Surface Measurement Systems) DVS Intrinsic. The relative humidity at 25° C. was calibrated against deliquescence point of LiCl, Mg(NO3)2 and KCl.
To investigate the solid form stability as a function of humidity, a DVS isotherm plot of Form A was collected at 25° C.

Compound: C[C@H](CC[C@](C)(O)C(F)(F)F)[C@H]1CC[C@H]2[C@@H]3CC=C4C[C@@](C)(O)CC[C@]4(C)[C@H]3CC[C@]12C [Form E]
- solid form after heating (XRPD) ([1]; heating to 140° C.): converted to Form B

Compound: C[C@H](CC[C@](C)(O)C(F)(F)F)[C@H]1CC[C@H]2[C@@H]3CC=C4C[C@@](C)(O)CC[C@]4(C)[C@H]3CC[C@]12C [Form A]
- water uptake (DVS) ([2]; 25° C./80% RH): 0.05%
- form change after DVS test (XRPD overlay before and after) ([2]; DVS isotherm collected at 25° C.): no form change
- hygroscopicity ([2]; from DVS at 25° C./80% RH): non-hygroscopic

Compound: C[C@H](CC[C@](C)(O)C(F)(F)F)[C@H]1CC[C@H]2[C@@H]3CC=C4C[C@@](C)(O)CC[C@]4(C)[C@H]3CC[C@]12C [Form D]
- solid form after heating (XRPD) ([1]; heating to 150° C.): converted to Form A
